For series [1], the species on record is Homo sapiens. The following applies: dose 250.0 nM.
Description: Inhibition of recombinant human Gal-9 to biotinylated recombinant human TIM3 protein-protein interaction at 250 nM by ELISA method
The nature of series [2]: Stability in rat liver microsomes assessed as half life. It counts as ADME, Microsome. A general note: Liver microsomes are a subcellular fraction often used to study metabolism.
Series [3] deals with PBMC. The series can be described thus: Induction of cytokine production in human PBMC cells assessed as increase in IFN-gamma level at 1 uM in the presence of TIM3 stimulation by ELISA method. The class given is functional, cell-based. A general note: In an ELISA, binding on a coated surface is turned into a signal by an enzyme label.
Series [4] in a line: Stability in simulated Intestinal fluids at pH 6.5 assessed as half life. It counts as ADME. The following applies: simulated intestinal fluid.
A short description of series [5]: Distribution coefficient, log D of the compound at pH 7.4 by shake flask method. It counts as physicochemical. The following applies: octanol/water.
Series [6] in a line: Apparent permeability across basolateral to apical in human Caco-2 cells. The class given is ADME, cell-based. (Passage across Caco-2 layers is used to estimate intestinal permeability.)
Series [7] in a line: Stability in human plasma assessed as compound remaining incubated for 2 hrs. It counts as ADME, cell-free. The following applies: read-out: Stability.
The test system of series [8] is Kasumi 1. Nature of the series: Antiproliferative activity against human Kasumi 1 cells at 1 uM. It counts as functional, cell-based.
The nature of series [9]: Stability in simulated gastric fluids at pH 1.6 assessed as half life. The class given is ADME. The note with it: simulated gastric fluid.
The nature of series [10]: Apparent permeability across apical to basolateral in human Caco-2 cells. The class given is ADME, cell-based.

Structures are written as SMILES. The source made the active and inactive calls. The calls are words filed in the database; no cut-off is given here. Peptide text beside a SMILES is read from it.

Broadly, the half-life is how long it takes for the measured level to halve. What is called logD is lipophilicity at a set pH, counting ionised and neutral species. High values mean higher lipophilicity, low ones lower lipophilicity. By Papp B→A is commonly meant the apparent permeability from the basolateral to the apical side of a cell layer. Usually Papp A→B stands for the apparent permeability from the apical to the basolateral side of a cell layer. Take `CC[C@H](C)[C@@H]1NC(=O)[C@H](Cc2ccc(O)cc2)NC(=O)[C@H](CS)NC(=O)[C@H](CO)NC(=O)[C@H](Cc2ccccc2)NC(=O)CNC(=O)[C@H](CO)NC(=O)[C@H](CO)NC(=O)[C@H](CO)NC(=O)[C@H](CS)NC(=O)[C@H](Cc2ccc(O)cc2)NC(=O)[C@H](CO)NC1=O` (cyclo(CSSSGFSCYISY)): the inhibition result in [1] is “Active”. The results for the half-life in series [2], in [4] and in series [9] were 12.4 h, 16.4 h and 8.7 h, respectively. The outcome in [3] was Active. In addition, the logD in [5] was 3.52. Moreover, the Papp B→A in series [6] came to 12.5 ×10⁻⁶ cm/s. The remaining at 2 h in [7] came to 95.4%. Also, the result in [8] was inactive. Besides, the Papp A→B in series [10] was found to be 8.16 ×10⁻⁶ cm/s.
